The target of series [1] is T1, human cytochrome P450 (CYP) 1A2 (Homo sapiens, UniProt P05177).
T1 construct: made in house; host or cells: yeast (microsomal fraction)
T1 sequence (P05177 1-516): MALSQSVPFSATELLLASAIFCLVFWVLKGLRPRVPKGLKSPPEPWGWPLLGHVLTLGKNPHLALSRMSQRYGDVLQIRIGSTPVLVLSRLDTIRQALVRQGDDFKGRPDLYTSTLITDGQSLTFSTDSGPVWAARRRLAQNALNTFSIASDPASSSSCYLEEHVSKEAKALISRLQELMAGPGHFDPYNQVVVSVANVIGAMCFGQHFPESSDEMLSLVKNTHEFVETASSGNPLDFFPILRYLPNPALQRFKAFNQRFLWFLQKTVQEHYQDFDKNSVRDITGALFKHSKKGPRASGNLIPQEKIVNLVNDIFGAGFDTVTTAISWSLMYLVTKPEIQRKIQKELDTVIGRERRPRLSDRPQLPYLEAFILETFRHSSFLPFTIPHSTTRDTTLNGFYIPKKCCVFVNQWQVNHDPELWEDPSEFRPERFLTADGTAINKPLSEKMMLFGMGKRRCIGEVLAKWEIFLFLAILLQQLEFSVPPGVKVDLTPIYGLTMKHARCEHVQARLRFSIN
The series can be described thus: Cytochrome P450 Inhibition Assay, CYP 1A2. It is filed as in vitro ADME. Conditions: test compound 0.1-10 μM, substrate CEC. On the procedure: (§1) Cytochrome P450 Inhibition Assay
The inhibitory potential (IC50) of test compounds against 5 human cytochrome P450 (CYP) isoforms (1A2, 2C9, 2C19, 3A4 and 2D6) was assessed using an automated fluorescent end point in vitro assay modified from Crespi (Crespi and Stresser, J Pharmacol Toxicol Methods 2000, 44: 325-331). Microsomal subcellular fractions prepared from Yeast cell lines expressing each human CYP isoform were used as an enzyme source in this assay. The activity of the 5 major human CYPs was determined from the biotransformation of a number of coumarin substrates to fluorescent metabolites, in the presence of NADPH. […] Comparison of the fluorescence observed in the presence of varying concentrations of test compound with that seen in its absence allowed an IC50 value to be calculated. […] The appropriate solvent controls and substrate blanks were included in each experiment to assess control activity and identify any inherent fluorescence due to the test compounds. […] The plates were read on a fluorimeter (Spectrafluor Plus) at the appropriate excitation and emission wavelengths (listed in Table 2) and the percent activity, corrected for control, was plotted against the test compound concentration.

Series [2] deals with T2, human cytochrome P450 (CYP) 2C19 (Homo sapiens, UniProt P33261).
T2 construct: made in house; host or cells: yeast (microsomal fraction)
T2 sequence (P33261 whole entry): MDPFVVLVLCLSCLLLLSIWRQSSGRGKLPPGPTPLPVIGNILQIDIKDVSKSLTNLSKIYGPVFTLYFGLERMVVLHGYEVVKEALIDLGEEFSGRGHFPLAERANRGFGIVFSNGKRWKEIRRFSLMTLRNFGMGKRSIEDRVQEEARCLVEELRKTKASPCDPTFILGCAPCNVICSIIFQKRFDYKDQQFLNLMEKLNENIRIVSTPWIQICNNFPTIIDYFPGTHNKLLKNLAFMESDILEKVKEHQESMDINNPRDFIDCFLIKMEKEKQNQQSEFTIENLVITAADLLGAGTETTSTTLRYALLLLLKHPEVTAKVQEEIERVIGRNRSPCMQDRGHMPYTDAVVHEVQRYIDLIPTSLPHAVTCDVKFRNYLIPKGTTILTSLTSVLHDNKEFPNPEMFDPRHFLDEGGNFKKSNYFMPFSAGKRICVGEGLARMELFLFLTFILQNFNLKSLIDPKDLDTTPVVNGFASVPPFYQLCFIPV
Kind of series: Cytochrome P450 Inhibition Assay, CYP 2C19. Type of series: in vitro ADME. The note with it: test compound 0.1-10 μM, substrate MFC; read-out: Ic50 2C19. On the procedure:
as §1
The inhibitory potential (IC50) of test compounds against 5 human cytochrome P450 (CYP) isoforms (1A2, 2C9, 2C19, 3A4 and 2D6) was assessed using an automated fluorescent end point in vitro assay modified from Crespi (Crespi and Stresser, J Pharmacol Toxicol Methods 2000, 44: 325-331). Microsomal subcellular fractions prepared from Yeast cell lines expressing each human CYP isoform were used as an enzyme source in this assay. The activity of the 5 major human CYPs was determined from the biotransformation of a number of coumarin substrates to fluorescent metabolites, in the presence of NADPH. […] Stock solutions of each CYP, with its respective substrate, were prepared in phosphate buffer pH 7.4 (see Table 1) and 178 μl was added to the well of a black solid, flat bottom, 300 μl 96 well microtitre plate (Corning Costar). […] After pre-incubating at 37° C. for 5 min the reactions were started with addition of NADPH (20 μl, concentration shown in Table 1). The final solvent content in each incubation was <=2% (1% from the test compound and a maximum of 1% from the substrate). The appropriate solvent controls and substrate blanks were included in each experiment to assess control activity and identify any inherent fluorescence due to the test compounds. In addition, known inhibitors of each CYP were included as positive controls (see Table 3 for inhibitor concentrations and expected IC50 ranges). The reactions were stopped at defined timepoints (see Table 1) by quenching with 100 μl of solvent (acetonitrile:0.5M Tris buffer 80:20 v/v). The plates were read on a fluorimeter (Spectrafluor Plus) at the appropriate excitation and emission wavelengths (listed in Table 2) and the percent activity, corrected for control, was plotted against the test compound concentration.

Series [3] is described as follows: Clearance (pharmacokinetics) in dogs. It is filed as in vivo. The note with it: dog, whole blood, dose 0.927 mg/kg (2 umol/kg); for Vd: read-out: Vss. On the procedure:
For the dog dose of 0.927 mg/kg (2 umol/kg), the compounds were formulated in 10% DMSO:90% hydroxyl-propyl-β-cyclodextrin (25% w/v) in sorensens buffer pH 5 at 2 umol/ml. Each formulation was dosed (1 mL/kg) to a male and female dog (8-15 kg) which had been fasted overnight. Blood samples were taken via the jugular vein at 5, 10, 20 and 40 minutes, and 1, 2, 4, 6, 12 and 24 hours post dose. The blood samples were diluted 1:1 with water prior to anaylsis.
A set of 10 calibration standards covering the concentration range (0.001 umol/L to 10 umol/L) were prepared by spiking blank matrix (1:1 blood:water). The samples and standards were extracted using a solid phase extraction plate, blown down under nitrogen, and then reconstituted in methanol:water (20:80). The samples were analysed using LC-MSMS and the results obtained were used to determine the area under the curve from time 0 to infinity [AUC0-inf (ug.hr/ml)], clearance [Cl (ml/min/kg)] and the steady state volume distribution [Vss (L/kg)] for each compound.

The term IC50 denotes the concentration at which inhibition is half-maximal. The AUC(0-inf) is the area under the concentration-time curve extrapolated to infinity. A higher AUC(0-inf) goes with high exposure. Broadly, the clearance is a measure of how efficiently the substance is removed, as volume per time.

Where two headings read alike, the source gives them in different places. Bounds are passed on as bounds.

`COc1cc(CCc2cc(NC(=O)c3ccc(N4CCN(C)[C@@H](C)C4)cc3)[nH]n2)cc(OC)c1` [Example 1a, (S)—N-(3-(3,5-Dimethoxyphenethyl)-1H-pyrazol-5-yl)-4-(3,4-dimethylpiperazin-1-yl)benzamide]: in series [1], the IC50 was more than 10 µM. Also, in series [2], the IC50 was more than 10 µM. For the same compound, in series [3] (female dogs), the AUC(0-inf) turned out to be 427 ng·h/mL, the clearance worked out at 36.2 mL/min/kg and the Vd is 7.08 L/kg. In series [3] (male dogs), the AUC(0-inf) was found to be 585 ng·h/mL, the clearance was 26.4 mL/min/kg and the Vd came out at 3.71 L/kg.

On to `COc1cc(CCc2cc(NC(=O)c3ccc(N4CCN(C)[C@H](C)C4)cc3)[nH]n2)cc(OC)c1` [Example 1b, (R)—N-(3-(3,5-Dimethoxyphenethyl)-1H-pyrazol-5-yl)-4-(3,4-dimethylpiperazin-1-yl)benzamide], for which the IC50 in series [1] is more than 10 µM; in series [2], 8.01 µM. For the same compound, the AUC(0-inf) in series [3] (female dogs) is 1350 ng·h/mL; in series [3] (male dogs), 1240 ng·h/mL. Moreover, the clearance in series [3] (female dogs) came to 11.5 mL/min/kg; in series [3] (male dogs), 12.5 mL/min/kg. Also, the Vd worked out at 1.71 L/kg in series [3] (female dogs) and 6.55 L/kg in series [3] (male dogs).
